# Laboratory results as given in US20060058270A1, “Ruthenium anticancer complexes” (priority 2002, published 2006).
# Tested on: guanosine and adenosine
# Assay: 1H NMR study of binding to DNA bases (guanosine/adenosine adduct formation)
# Conditions: 500 MHz 1H NMR; guanosine:adenosine:compound mole ratio 1.3:1:1 in 10% D2O/90% H2O
# Excerpt: The ability of the compounds of the invention to bind to DNA bases was studied by nmr and the results are illustrated in the accompanying figures in which:
# FIG. 1 is a 500 MHz ^1H NMR spectrum of a mixture of guanosine:adenosine:compound of Example 1 in the mole ratio 1.3:1:1, respectively, in 10% D2O/90% H2O.
# In FIG. 2, the region from 5.1 to 5.4 ppm (right) corresponds to the central CH on the acac ligand. Peaks a and b correspond to the adenosine adducts, peak c to the guanosine adduct. In the region 7.9-8.6 ppm (left), peaks for the H2 and H8 protons of adenosine and H8 protons of guanosine appear. […] The atom labelling scheme for the nucleobase part (A and G) of the nucleosides is shown.
row,Structure (SMILES),adduct formation with adenosine and guanosine (binding to DNA bases)
1,"CC(=O)C=C(C)[O][Ru][Cl].Cc1ccc(C(C)C)cc1 [Example 1, [(η^6-p-cymene)RuCl(H3CCOCHCOCH3-O,O)]]",both adenosine and guanosine form adducts

# Tested on: A2780 ovarian cancer cell line
# Assay: Cytotoxicity of Ru compounds on A2780 ovarian cancer cell line (cell count, Coulter counter)
# Assay type: cell-based
# Conditions: A2780 cells; 24 hours drug exposure, further 3 days growth, cells counted
# Method: 1. Protocol for Testing Ru Compounds The compounds are tested on 24-well trays. Cells growing in a flask are harvested just before they become confluent, counted using a haemocytometer and diluted down with media to a concentration of 1×10^4 cells per ml. The cells are then seeded in the 24-well trays at a density of 1×10^4 cells per well (i.e. 1 ml of the diluted cell suspension is added to each well). The cells are then left to plate down and grow for 72 hours before adding the compounds of the invention. The Ru complexes are weighed out and made up to a concentration of 1 mg/ml with deionised water and 0.5% w/w DMSO. The appropriate volume of the Ru solution is added to 5 ml of media to make it up to a concentration of 100 μM for each drug. This 100 μM solution is then serially diluted to make up the 10 μM, 1 μM and 0.1 μM solutions. The media is removed from the cells and replaced with 1 ml of the media dosed with drug. Each concentration is done in duplicate. A set of control wells are left on each plate, containing media and 0.5% w/w DMSO without drug. The cells are left exposed to the drugs for 24 hours and then washed with phosphate buffered saline before fresh media is added. They are allowed to grow on for a further 3 days before being counted using a Coulter counter. Preparing Cells for Counting: Media is removed and 1 ml of PBS is added to the cells. 250 μl of trypsin is added and cells left in incubator for a few minutes to allow the monolayers to detach. Once trypsinised, 250 μl of media is added to each well to neutralise the trypsin. 200 μl of this suspension is added to 10 ml of NaCl for counting. Using the above protocol, a number of compounds of the invention were tested on A2780 ovarian cancer cell line. […]
row,Structure (SMILES),IC50 [µM]
1,"CC(=O)C=C(C)[O][Ru][Cl].Cc1ccc(C(C)C)cc1 [Example 1, [(η^6-p-cymene)RuCl(H3CCOCHCOCH3-O,O)]]",19
2,"Cc1ccc(C(C)C)cc1.O=C([CH-]C(=O)C(F)(F)F)C(F)(F)F.[Cl-].[Ru+2] [Example 2, [(η^6-p-cymene)RuCl(F3CCOCHCOCF3—O,O)]]",> 100
3,"Cc1ccc(C(C)C)cc1.O=C([CH-]C(=O)c1ccccc1)c1ccccc1.[Cl-].[Ru+2] [Example 3, [(η^6-p-cymene)RuCl(C6H5COCHCOC6H5—O,O)]]",11
4,"CC(C)(C)C(=O)[CH-]C(=O)C(C)(C)C.Cc1ccc(C(C)C)cc1.[Cl-].[Ru+2] [Example 4, [(η^6-p-cymene)RuCl((CH3)3CCOCHCOC(CH3)3—O,O)]]",14
5,"CC(=O)C=C(C)[O][Ru][Cl].c1ccc(-c2ccccc2)cc1 [Example 5, [(η^6—C6H5C6H5RuCl(H3CCOCHCOCH3—O,O)]]",21
6,"CC#N.CC(=O)C=C(C)[O][Ru+].Cc1ccc(C(C)C)cc1.F[B-](F)(F)F [Example 6, [(η^6-p-cymene)Ru(CH3CN)(H3CCOCHCOCH3—O,O)]BF4]",22
